Values quoted from earlier work as cited in patent US8603452B1, “Method of preventing biofouling using an anti-fouling bio-hydrogel composition” (University of South Florida, priority 2007, dated 2013).
Read-outs that look alike come from different tables or passages of the source.

Experiments:
[1] = test system: biofouling; details: hydrogel coatings containing BAC, marine environment

benzalkonium chloride [BAC]
diffusion coefficient (loss of BAC from hydrogel film, period from 12 to 50 hours, 13° C., freshwater): 7.3×10^−8 cm^2 s^−1
diffusion coefficient (rate of loss of the residual BAC from hydrogel film, 15° C.): 5.7×10^−10 cm^2 s^−1
prevention of the development of biofouling (duration) [1]: up to 12 weeks
